# According to EP1878738A1, “ALLERGY-SUPPRESSIVE COMPOSITION, ALLERGY-SUPPRESSIVE FOOD AND ALLERGY-SUPPRESSIVE AGENT” (priority 2005, dated 2006):
# Read-outs that look alike come from different tables or passages of the source.
# How the values were obtained:
# [1] = format: in vivo, human; details: many subjects; 1g or 2g a day for 12 weeks
# Description: (§1) The test subjects were 13 infants with atopic dermatitis and mild and severe eruption (age: 0 to 3 years old) in which food allergic symptoms were accompanied. The test was approved by parents of the subjects. In the clinical test, the subjects were kept under observation for 2 weeks and they took 1-kestose with a purity of 98% mixed with water or juice once a day for 12 weeks. The subjects at age 1 or under were provided with 1g of 1-kestose a day and those at age 2 to 3 took 2g of 1-kestose a day. The test subjects used no external preparation of steroid for one month or more before taking 1-kestose. During the test, the subjects were treated mainly with a humectant and took food allergen removing food.
# anti-OVA IgG1 = assay: Example 2: oral immune tolerance, serum anti-OVA IgG1 by ELISA in human-flora associated mice; format: in vivo; details: 1-kestose-administered group, 41 without 1-kestose, germfree mice 1583
# Experimental: (§2) In Example 2, to examine the effect of 1-kestose on the production of IgG1 and IgE, 1-kestose was administered to germfree […] to measure IgG1 and IgE amounts in the serum before and after giving 1-kestose.
# (§3) In this Example 2, the mice used in the experiment were male […] with 4 weeks of age born and grown in a germfree condition (BALB/c), with 10 to 15 rats as a group. These mice were orally provided with 0.5ml of a liquid obtained by diluting feces of human infants 100 times and observed in a germfree condition for two weeks. Afterward, 5mg of ovalbumin (OVA) was orally administered to the mice for 4 days. To examine the existence of immune tolerance, a liquid obtained by adding 0.1 mg of aluminum hydroxide gel to 1 µg of OVA was injected into the abdominal cavity, 1, 3, 5 and 7 weeks after orally administering OVA. These human-flora associated mice were separated into 1-kestose-administered group and non-administered control group and anti-OVA IgG1 and anti-OVA IgE in the serum were measured by ELISA method, 9 weeks after administering 1-kestose.
# [2] = Volunteer experiment on bowel movement, daily dose 2g; format: in vivo, human; details: daily dose of 2g; volunteer subjects
# Description: (§4) According to the results of each above-mentioned Example, it was confirmed that an adult can have the effect of 1-kestose as prebiotics with a daily dose of 3g. […] The subjects were 4 health adult males whose age ranges from 38 to 56. The subject A is 67kg, subject B is 56kg, subject C is 59kg and subject D is 63kg in weight.
# Bifidobacterium [3] = assay: Example 6: effective amount of 1-kestose, Bifidobacterium count in feces; format: in vivo, human; details: for minimal effective dose: Bifidobacterium, po, read-out: effective amount of 1-kestose per 1kg body weight
# Description: as §4
# In the experiment, feces were first collected from each subject before taking 1-kestose, and counts of Bifidobacterium, Lactobacillus, Clostridium and total bacteria were measured. Then, they took 1g of 1-kestose once a day for 2 weeks. 15 days later, feces were collected from each subject to measure intestinal bacteria. Afterward, they took no 1-kestose for one week. From the 22nd day, they took 3g of 1-kestose once a day for two weeks, and feces were collected from each subject on the 36th day to measure intestinal bacteria. Figure 13 and Figure 14 show the results.
# Bifidobacterium [4] = assay: Example 4: improvement of enterobacterial flora in germfree mice, proportion of Bifidobacterium; format: in vivo; details: orally administered for 5 days
# Description: In this Example 4, the effect of improving the enterobacterial flora of each composition composed of fructooligosaccharide was compared, using germfree mice. The fructooligosaccharide is composed of kestose (trisaccharide), nystose (tetrasaccharide) and F-nystose (pentasaccharide). The kestose used in this Example 4 is composed of 1-kestose (99.0%), nystose (0.5%) and sucrose (0.5%). The nystose is composed of nystose (99.0%), 1-kestose (0.9%) and sucrose (0.1 %). The F-nystose is composed of F-nystose (82.0%), other pentasaccharides (13.0%) and other components (5.0%). Additionally, control groups of mice dosed with sterile water and dosed with usual fructooligosaccharide (1-kestose: 35.8 weight %, nystose: 50.9 weight %, F-nystose: 8.5 weight %) were prepared and their data were obtained for comparison. […] Each oligosaccharide was orally administered to germfree mice for 5 days to determine the proportion of Bifidobacterium proliferated to total bacterial count.
# [5] = Example 6: 1-kestose intake with no side effect (diarrhea, organs, blood); set-up: species or system human; details: in vivo
# Description: Meanwhile, the 1-kestose intake with no side effect was examined.
# nonspecific IgE [6] = assay: Example 5: nonspecific IgE after 1-kestose and after fructooligosaccharide intake; format: in vivo, human
# Experimental: In this Example 5, the subjects were 4 adult females (from 27 to 45 years old) with daily allergic symptoms. They took 1-kestose and fructooligosaccharide and nonspecific IgE of each subject was measured. In this experiment, nonspecific IgE before taking the substances was measured and then the subjects took 3g of 1-kestose after eating once a day for 4 weeks. The blood was collected 5 weeks later to measure nonspecific IgE and afterward they took no substances for 2 weeks. Then, the subjects took 3g of fructooligosaccharide after eating once a day for 4 weeks and the blood was collected. The 1-kestose used in this Example 5 has a purity of 95% or more, and the commercially-available fructooligosaccharide is a nystose-dominant oligosaccharide composed of nystose (51 %) and 1-kestose (36%). In the experiment, the subjects took less health foods like prebiotics and probiotics containing other oligosaccharides and Lactobacillus.
# anti-OVA IgE = assay: Example 2: oral immune tolerance, serum anti-OVA IgE by ELISA in human-flora associated mice; format: in vivo; details: 1-kestose-administered group, 204 without 1-kestose, germfree mice 496
# Experimental: as §2, §3
# nonspecific IgE [7] = assay: Example 3: nonspecific IgE in human serum before and after taking 1-kestose; format: in vivo; details: adult with allergic symptoms, 3g for one month, standard value 366
# Description: In this Example 3, to examine the effect of 1-kestose on IgE amount in the human serum, the subjects were given 1-kestose to measure nonspecific IgE amount in the serum before and after taking 1-kestose.
# Bifidobacterium [8] = assay: Example 1: intestinal bacteria in feces, anaerobic plate culture (Bifidobacterium); format: in vivo, human; details: after 3g for one month
# Description: (§5) The composition, containing 1-kestose used in this Example 1, is of a 1-kestose purity of 98%, composed of 1-kestose (98 weight %), nystose (1.0 weight %) and sucrose (1.0 weight %). An allergy-suppressive composition, having 1-kestose as an active ingredient, was given to 4 adult males having allergic symptoms, with each dose of 3g for one month. The feces before and after the composition was taken were collected to measure IgA and intestinal bacteria in the feces.
# Meanwhile, to measure intestinal bacteria, a sample liquid for measurement was dripped on a flat-plate agar medium by 0.05ml and applied thereon. After anaerobic culture of the sample at 35°C for 3 to 5 days, the bacteria were identified and bacterial count was found.
# IgA = assay: Example 1: IgA in feces by ELISA before and after taking 1-kestose; format: in vivo, human
# Description: as §5
# To measure IgA, the collected feces were diluted 20 times with phosphate buffered saline (PBS) and supernatant was collected by a centrifugal separator. Then, the liquid was diluted 10 times with water to make a sample for measurement. Also, an anti-human IgA mouse monoclonal antibody (product of Nacalai Tesque Inc.), and a horseradish peroxidase (HRP)-labeled antibody by labeling the antihuman IgA mouse monoclonal antibody with HRP were prepared. Afterward, IgA was measured using ELISA method.
# Bifidobacterium [9] = assay: Example 7: clinical test, bifidobacterial occupancy in feces; format: in vivo, human; details: before 30.1 %
# Description: (§6) The test subjects were 13 infants with atopic dermatitis and mild and severe eruption (age: 0 to 3 years old) in which food allergic symptoms were accompanied. The test was approved by parents of the subjects.
# as §1, with “In” for “The test subjects were 13 infants with atopic dermatitis and mild and severe eruption (age: 0 to 3 years old) in which food allergic symptoms were accompanied. The test was approved by parents of the subjects. In”
# (§7) The subjects were diagnosed at the start of, 6 and 12 weeks after taking 1-kestose, and 4 to 8 weeks after the intake completion to assess the clinical test results (examination of dermis severity and stool samples). The inspection 4 to 8 weeks after the intake completion was aimed at examining drug efficacy sustaining effect. In the stool sample inspection, feces were collected form the subjects to calculate bifidobacterial occupancy in the feces. The eruption severity was examined using Severity Determination Method by Region of Severity Discussion Committee of Japanese Dermatological Association, in which by separating the entire body into 5 regions: head, anterior and posterior parts of the trunk, upper and lower extremities, the sum of comprehensive assessments is calculated in each region (on 0 to 4 scales).
# [10] = test system: infants with atopic dermatitis; assay: Example 7: clinical test in infants with atopic dermatitis, eruption severity; format: in vivo, human
# Description: as §6
# as §1, with “In” for “The test subjects were 13 infants with atopic dermatitis and mild and severe eruption (age: 0 to 3 years old) in which food allergic symptoms were accompanied. The test was approved by parents of the subjects. In”
# as §7
# [11] = in vivo
# Description: The subjects were 2 volunteer patients with allergic symptoms (adult male and female each). They took 3g of 1-kestose for one month and blood components like nonspecific IgE in the serum were examined.
compound,measurement,setting,value
OC[C@H]1O[C@@](CO)(OC[C@@]2(O[C@H]3O[C@H](CO)[C@@H](O)[C@H](O)[C@H]3O)O[C@H](CO)[C@@H](O)[C@@H]2O)[C@@H](O)[C@@H]1O [1-kestose],bowel movement,[1],improved bowel movement
same,anti-OVA IgG1 in the serum,anti-OVA IgG1,31 unit/ml
same,effect on bowel movement,[2],improving bowel movement
same,minimal effective dose,Bifidobacterium [3]; mean value,16 mg/kg
same,minimal effective dose,Bifidobacterium [3]; subject A (67kg),15 mg/kg
same,minimal effective dose,Bifidobacterium [3]; subject B (56kg),18 mg/kg
same,minimal effective dose,Bifidobacterium [3]; subject C (59kg),17 mg/kg
same,minimal effective dose,Bifidobacterium [3]; subject D (63kg),16 mg/kg
same,effective 1-kestose amount,Bifidobacterium [3]; adult with a weight of at least 60kg,1 g per day
same,proportion of Bifidobacterium proliferated to total bacterial count,Bifidobacterium [4],12.59%
same,1-kestose intake with no side effect,"[5]; human, po",≤ 400 mg/kg/day
same,diarrhea,[5],no diarrhea
same,diarrhea symptoms,[5],no diarrhea symptoms
same,effect on organs and blood component,[5],no effect on organs and blood component
same,mean nonspecific IgE,"nonspecific IgE [6]; mean of 4 adult females, 3g once a day for 4 weeks, before 403.8",298.8 IU/ml
same,decrease in mean nonspecific IgE,"nonspecific IgE [6]; mean of 4 subjects, vs before taking",approximately 26%
same,nonspecific IgE,"nonspecific IgE [6]; subject A, 3g once a day for 4 weeks, before 541",298 IU/ml
same,decrease in nonspecific IgE,"nonspecific IgE [6]; subject A, vs before taking",approximately 45%
same,nonspecific IgE,"nonspecific IgE [6]; subject B, 3g once a day for 4 weeks, before 422",282 IU/ml
same,decrease in nonspecific IgE,"nonspecific IgE [6]; subject B, vs before taking",≥ 32%
same,nonspecific IgE,"nonspecific IgE [6]; subject C as printed, 3g once a day for 4 weeks, before 323",275 IU/ml
same,decrease in nonspecific IgE,"nonspecific IgE [6]; subject C as printed, vs before taking",approximately 25%
same,increase in nonspecific IgE,"nonspecific IgE [6]; subject C, vs before taking",about 3%
same,anti-OVA IgE in the serum,anti-OVA IgE,156 unit/ml
same,nonspecific IgE in the serum,nonspecific IgE [7]; before 381,313 IU/ml
same,nonspecific IgE in the serum,nonspecific IgE [7]; before 505,354 IU/ml
same,mean bifidobacterial occupancy relative to the total bacterial count,"Bifidobacterium [8]; mean, before 19.97%",43.05%
same,bifidobacterial occupancy relative to the total bacterial count,"Bifidobacterium [8]; subject A, before 11.67%",52.38%
same,bifidobacterial occupancy relative to the total bacterial count,"Bifidobacterium [8]; subject B, before 38.57%",57.14%
same,increase of mean IgA concentration in feces,IgA; after vs before taking 3g for one month,≥ 1.7 times
same,mean IgA concentration in feces,"IgA; mean of 4 adult males with allergic symptoms, 3g for one month, 0.61 before taking",1.06 µg/mL
same,increase of IgA concentration in feces,"IgA; subjects A to C, 3g for one month",twice or more
same,mean bifidobacterial occupancy in feces,Bifidobacterium [9]; 4 to 8 weeks after completion of 12 weeks intake,32.7%
same,mean bifidobacterial occupancy in feces,"Bifidobacterium [9]; 9 subjects, 6 weeks after taking",42.3%
same,mean bifidobacterial occupancy in feces,"Bifidobacterium [9]; 9 subjects, 12 weeks after taking, p 0.0308 vs start",56.0%
same,"eruption (dermis severity, Japanese Dermatological Association method by region)","[10]; 13 infants 0 to 3 years, 1g or 2g a day for 12 weeks, p 0.0022 start vs 12 weeks, p 0.0025 start vs 4 to 8 weeks after completion",significant improvement in eruption
same,number of subjects with no deterioration or recurrence of eruption,"[10]; of 11 subjects, 4 to 8 weeks after taking 1-kestose for 12 weeks",Seven
same,number of subjects who completely removed eruption,"[10]; of 13 subjects, 4 to 8 weeks after taking 1-kestose for 12 weeks",6
same,C-reactive protein (CRP) value,[11],negative
same,"effect on hepatic functions, other organs and blood components",[11],"no effect on hepatic functions, etc., other organs and blood components"
OC[C@H]1O[C@@](CO)(OC[C@@]2(OC[C@@]3(OC[C@@]4(O[C@H]5O[C@H](CO)[C@@H](O)[C@H](O)[C@H]5O)O[C@H](CO)[C@@H](O)[C@@H]4O)O[C@H](CO)[C@@H](O)[C@@H]3O)O[C@H](CO)[C@@H](O)[C@@H]2O)[C@@H](O)[C@@H]1O [F-nystose],proportion of Bifidobacterium proliferated to total bacterial count,Bifidobacterium [4],7.94%
OC[C@H]1O[C@@](CO)(OC[C@@]2(OC[C@@]3(O[C@H]4O[C@H](CO)[C@@H](O)[C@H](O)[C@H]4O)O[C@H](CO)[C@@H](O)[C@@H]3O)O[C@H](CO)[C@@H](O)[C@@H]2O)[C@@H](O)[C@@H]1O [nystose],proportion of Bifidobacterium proliferated to total bacterial count,Bifidobacterium [4],7.94%
